Assay results reported in patent publication US8741330B2, “Transluminal drug delivery methods and devices” (priority 2006, dated 2014).
Structures can show the parent of a compound that is named as a salt.

Legend:
[1] = PDR 1997 p. 564; cited from earlier work
[2] = 5 and 10 ml of water
[3] = Blood pressure / hemodynamic monitoring after urethral suppository (Example 1); conditions: rabbit, urethral suppository approx. 100 mg lidocaine

Row | Compound | maximum recommended adult dose [1] | effect of fluid volume on pH of lidocaine/sodium bicarbonate [2] | hemodynamic changes [3]
1 | CCN(CC)CC(=O)Nc1c(C)cccc1C [lidocaine hydrochloride] | 4.5 mg/kg |  | 
2 | CCN(CC)CC(=O)Nc1c(C)cccc1C [lidocaine] |  | does not appear to have a major effect | No significant hemodynamic changes
